This series can be described thus: Genotoxicity studies of bupivacaine HCl (4 in vitro, 2 in vivo). To be noted: 4 in vitro studies and 2 in vivo studies. An excerpt: The distribution, metabolism, and excretion of bupivacaine across species is characterized in the literature including data showing that, following absorption, bupivacaine is rapidly and readily distributed to tissues, with the highest concentrations in highly perfused tissues. In general, the metabolic profile of bupivacaine is similar across species although quantitatively different, with no novel metabolite identified in humans (Goehl, et al., 1973, Carson 2000). The excretion of bupivacaine in monkeys and humans is predominantly in the urine; in rats, excretion in urine and feces is generally similar; and in dogs, only small amounts of excretion of bupivacaine in the urine have been reported.

These results are taken from patent US20240382651A1, “BUPIVACAINE-COLLAGEN DRUG DELIVERY IMPLANT AND METHODS OF MAKING AND USING THEREOF” (INNOCOLL PHARMACEUTICALS LIMITED, priority 2021, published 2024).

SMILES strings stand for the structures. Structures can show the parent of a compound that is named as a salt.

For the molecule `CCCCN1CCCCC1C(=O)Nc1c(C)cccc1C` (stereo not shown) [bupivacaine HCl], the Genotoxicity result is given as “no safety concerns identified”.
